# Earlier results, collected in PMC6444188, “Systemic Administration of Avian Defensin 7: Distribution, Cellular Target, and Antibacterial Potential in Mice” (Frontiers in Microbiology, 2019).
# Ends that are not written are not given here.
# What was measured:
# proteases = tested on: proteases
# From the text: AvBDs are characterized by cationicity and structure with the typical beta-sheet stabilized by three disulfide bonds between six highly conserved cysteines while primary sequences are diverse ([Derache et al., 2012]).
# S. Typhimurium = tested on: S. Typhimurium
# From the text: The ability of AvBD7 to reduce bacterial load in the liver of Salmonella-infected animals is in agreement with the distribution of this defensin to this organ. Indeed, even if most part of the fluorescence-labeled AvBD7 injected in the peritoneal cavity of mice reached bloodstream, kidneys and was eliminated through the urinary tract, a substantial amount was found in the liver, the second most fluorescent organ after the kidneys.
# S. Typhi = conditions: intraperitoneal mouse model of salmonellosis; ref Maiti et al., 2014
# From the text: There is a lack of knowledge on the ability of defensins to exert antimicrobial activity toward MDR bacterial strains. […] There are several mouse salmonellosis models available to assess vaccine and antimicrobials efficacy ([Higginson et al., 2016]). These range from models of colonization or lethality, through infection by the oral, ...
# [1] = 30 mg/kg i.p., S. Typhimurium-infected mice, ref Benincasa et al., 2010
substance,measurement,setting,value
"HBD3: human beta-defensin (GIINTLQKYYCRVRGGRCAVLSCLPKEEQIGKCSTRGRKCCRRKK; ends and bridges not checked; cysteine pairing not given here; UniProt P81534 23-67, looked up)",stability toward proteases,proteases,can be inactivated by proteases
"Bac7: proline-rich antimicrobial peptide (RRIRPRPPRLPRPRPRPLPFPRPGPRPIPRPLPFP; Bac7; UniProt P19661 131-165, looked up, fragment)",effect on liver bacterial load,S. Typhimurium; [1],without significant reduction of the liver bacterial load
same,effect on mice survival,S. Typhimurium; [1],beneficial effect on mice survival
same,time to elimination following i.p. injection,"S. Typhimurium; mouse, in vivo, ip",≤ 5 h
"HBD1: human beta-defensin (DHYNCVSSGGQCLYSACPIFTKIQGTCYRGKAKCCK; ends and bridges not checked; cysteine pairing not given here; UniProt P60022 33-68, looked up)",effect on disease and bacterial load,S. Typhi,efficient in attenuating the disease and the bacterial load
